Here are results for 2 compounds from PubChem BioAssay AID1963976 (Molecular Pharmacology Branch, DTP, NCI, 2024).

One may read the IC50 as the concentration needed to halve the response being measured. The viability, T/C is the ratio of treated to control.

SMILES strings stand for the structures. Several values for one entry are separate records, joined by “and”; a condition that tells them apart may be missing. Equal entries are not always repeated.

In this test the test system is 435261-313-R-J1-PDC tumor spheroid viability. Nature of the test: Anticancer human tumor 435261-313-R-J1-PDC patient-derived colon adenocarcinoma cell line growth inhibition [PI3K]. The settings on record: spheroids with HUVEC and MSC; for viability, T/C: stronger effect = lower value. An outline of the steps: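 Complex 3D spheroids (cancer cells + endothelial HUVEC + mesenchymal stem cells); drug pairs of targeted agent x inavolisib/alpelisib/duvelisib/copanlisib; half-log series from ~Cmax, max 10 microM if Cmax unknown; endpoint viability.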
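Also: spheroids exposed to compounds for 7 days.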

As for `CCN1CCN(Cc2ccc(Nc3ncc(F)c(-c4cc(F)c5nc(C)n(C(C)C)c5c4)n3)nc2)CC1` + COc1c(OCCCN2CCOCC2)ccc2c3n(c(=NC(=O)c4cnc(N)nc4)nc12)CCN3, the concentration for half-maximal inhibition (IC50) (curve of first compound, second compound 0.00316 µM) was found to be 52.9 nM; the IC50 (curve of first compound, second compound 0.01 µM) is below 3.16 nM; the concentration for half-maximal inhibition (IC50) (curve of first compound, second compound 0.0316 µM) was below 3.16 nM; the half-maximal inhibitory concentration (IC50) (curve of first compound, second compound 0.1 µM) is below 3.16 nM; the IC50 (curve of first compound, second compound 0.316 µM) is below 3.16 nM; the IC50 (curve of first compound, second compound 1 µM) is below 3.16 nM. The viability, T/C reads like this: (second compound 0.00316 µM, first compound 0.00316 µM) 49.3%; (second compound 0.00316 µM, first compound 0.01 µM) 57.2%; (second compound 0.00316 µM, first compound 0.0316 µM) 65.2%; (second compound 0.00316 µM, first compound 0.1 µM) 35.8%; (second compound 0.00316 µM, first compound 0.316 µM) 40.6%; (second compound 0.00316 µM, first compound 1 µM) 46.6%. Besides, the viability, T/C was 42.3% (second compound 0.01 µM, first compound 0.00316 µM); 39.8% (second compound 0.01 µM, first compound 0.01 µM); 35.4% (second compound 0.01 µM, first compound 0.0316 µM); 33% (second compound 0.01 µM, first compound 0.1 µM); 32.7% (second compound 0.01 µM, first compound 0.316 µM); 42.5% (second compound 0.01 µM, first compound 1 µM). In addition, the viability, T/C by setting is: (second compound 0.0316 µM, first compound 0.00316 µM) 28.9%; (second compound 0.0316 µM, first compound 0.01 µM) 22.6%; (second compound 0.0316 µM, first compound 0.0316 µM) 24.1%; (second compound 0.0316 µM, first compound 0.1 µM) 23.3%; (second compound 0.0316 µM, first compound 0.316 µM) 26.6%; (second compound 0.0316 µM, first compound 1 µM) 25.2%. Also, the viability, T/C by setting is: (second compound 0.1 µM, first compound 0.00316 µM) 15.2%; (second compound 0.1 µM, first compound 0.01 µM) 15.4%; (second compound 0.1 µM, first compound 0.0316 µM) 18.1%; (second compound 0.1 µM, first compound 0.1 µM) 13.7%; (second compound 0.1 µM, first compound 0.316 µM) 15.6%; (second compound 0.1 µM, first compound 1 µM) 16.7%. For the same compound, the viability, T/C (second compound 0.316 µM, first compound 0.00316 µM) is 8.47%; the viability, T/C (second compound 0.316 µM, first compound 0.01 µM) was 8.29%; the viability, T/C (second compound 0.316 µM, first compound 0.0316 µM) is 8.24%; the viability, T/C (second compound 0.316 µM, first compound 0.1 µM) is 6.93%; the viability, T/C (second compound 0.316 µM, first compound 0.316 µM) is 8.43%; the viability, T/C (second compound 0.316 µM, first compound 1 µM) was 9.13%. Moreover, the viability, T/C reads like this: (second compound 1 µM, first compound 0.00316 µM) 4.09%; (second compound 1 µM, first compound 0.01 µM) 3.66%; (second compound 1 µM, first compound 0.0316 µM) 3.83%; (second compound 1 µM, first compound 0.1 µM) 2.75%; (second compound 1 µM, first compound 0.316 µM) 3.7%; (second compound 1 µM, first compound 1 µM) 3.49%.
Consider `C=CC(=O)N1CCN(c2nc(=O)n(-c3c(C)ccnc3C(C)C)c3nc(-c4c(O)cccc4F)c(F)cc23)C(C)C1` (configuration not stated), for which the viability, T/C (compound 0.0316 µM) is 92% [middle of 4 runs]; the viability, T/C (compound 0.316 µM) is 109% [middle of 4 runs]; the viability, T/C (compound 3.16 µM) was 137% and 124% (2×) and 123%; the viability, T/C (compound 10 µM) is 109% [middle of 4 runs]. For the same compound, where the note is “curve of compound”, the IC50 was above 10000 nM.
